Experimental data as given in PubChem BioAssay AID1259407 (Chemical Carcinogenesis Research Information System (CCRIS), 2018).
The source made the active and inactive calls. How the calls were made is not given here.

System: CCRIS mutagenicity, Ames/micronucleus/aberration tests
Test: CCRIS mutagenicity studies
Excerpt: The CCRIS database contains chemical records with carcinogenicity, mutagenicity, tumor promotion, and tumor inhibition test results. It was developed by the National Cancer Institute (NCI). Data are derived from studies cited in primary journals, current awareness tools, NCI reports, and other sources. Test results have been reviewed by experts in carcinogenesis and mutagenesis.
CCRIS provides historical information from the years 1985 - 2011. It is no longer updated.
This is an archive assay for CCRIS mutagenicity studies.

[1] = Test System: AMES SALMONELLA TYPHIMURIUM, Strain/Indicator: TA98, Metabolic Activation: NONE, Method: PREINCUBATION
[2] = Test System: AMES SALMONELLA TYPHIMURIUM, Strain/Indicator: TA100, Metabolic Activation: NONE, Method: PREINCUBATION
[3] = Test System: AMES SALMONELLA TYPHIMURIUM, Strain/Indicator: TA1535, Metabolic Activation: NONE, Method: PREINCUBATION
[4] = Test System: AMES SALMONELLA TYPHIMURIUM, Strain/Indicator: TA1537, Metabolic Activation: NONE, Method: PREINCUBATION
[5] = Test System: AMES SALMONELLA TYPHIMURIUM, Strain/Indicator: TA97, Metabolic Activation: NONE, Method: PREINCUBATION
[6] = Test System: AMES SALMONELLA TYPHIMURIUM, Strain/Indicator: TA102, Metabolic Activation: NONE, Method: PREINCUBATION
[7] = Test System: AMES SALMONELLA TYPHIMURIUM, Strain/Indicator: TA102, Metabolic Activation: RAT, LIVER, S-9, AROCLOR 1254, Method: PREINCUBATION
[8] = Test System: AMES SALMONELLA TYPHIMURIUM, Strain/Indicator: TA97, Metabolic Activation: HAMSTER, LIVER, S-9, AROCLOR 1254 (10 OR 30%), Method: PREINCUBATION
[9] = Test System: AMES SALMONELLA TYPHIMURIUM, Strain/Indicator: TA97, Metabolic Activation: RAT, LIVER, S-9, AROCLOR 1254 (10 OR 30%), Method: PREINCUBATION
[10] = Test System: AMES SALMONELLA TYPHIMURIUM, Strain/Indicator: TA98, Metabolic Activation: HAMSTER, LIVER, S-9, AROCLOR 1254 (10 OR 30%), Method: PREINCUBATION
[11] = Test System: AMES SALMONELLA TYPHIMURIUM, Strain/Indicator: TA98, Metabolic Activation: RAT, LIVER, S-9, AROCLOR 1254 (10 OR 30%), Method: PREINCUBATION
[12] = Test System: AMES SALMONELLA TYPHIMURIUM, Strain/Indicator: TA100, Metabolic Activation: HAMSTER, LIVER, S-9, AROCLOR 1254 (10 OR 30%), Method: PREINCUBATION
[13] = Test System: AMES SALMONELLA TYPHIMURIUM, Strain/Indicator: TA100, Metabolic Activation: RAT, LIVER, S-9, AROCLOR 1254 (10 OR 30%), Method: PREINCUBATION
[14] = Test System: AMES SALMONELLA TYPHIMURIUM, Strain/Indicator: TA1535, Metabolic Activation: HAMSTER, LIVER, S-9, AROCLOR 1254 (10 OR 30%), Method: PREINCUBATION
[15] = Test System: AMES SALMONELLA TYPHIMURIUM, Strain/Indicator: TA1535, Metabolic Activation: RAT, LIVER, S-9, AROCLOR 1254 (10 OR 30%), Method: PREINCUBATION
[16] = Test System: AMES SALMONELLA TYPHIMURIUM, Strain/Indicator: TA1537, Metabolic Activation: HAMSTER, LIVER, S-9, AROCLOR 1254 (30%), Method: PREINCUBATION
[17] = Test System: AMES SALMONELLA TYPHIMURIUM, Strain/Indicator: TA1537, Metabolic Activation: RAT, LIVER, S-9, AROCLOR 1254 (30%), Method: PREINCUBATION

Row | SMILES | mutagenic call [1] | mutagenic call [2] | mutagenic call [3] | mutagenic call [4] | mutagenic call [5] | mutagenic call [6] | mutagenic call [7] | mutagenic call [8] | mutagenic call [9] | mutagenic call [10] | mutagenic call [11] | mutagenic call [12] | mutagenic call [13] | mutagenic call [14] | mutagenic call [15] | mutagenic call [16] | mutagenic call [17] | further results
1 | CCOc1ccc(N=Nc2ccc(-c3ccc(N=Nc4c(O)ccc5cc(S(=O)(=O)O)cc(S(=O)(=O)O)c45)c(C)c3)cc2C)cc1 | inactive; negative | inactive; negative | inactive; negative | inactive; negative | – | – | – | – | – | – | – | – | – | – | – | – | – | mutagenic call (Test System: AMES SALMONELLA TYPHIMURIUM, Strain/Indicator: TA98, Metabolic Activation: HAMSTER, LIVER, S-9, AROCLOR 1254 (10%), Method: PREINCUBATION): inactive; negative; mutagenic call (Test System: AMES SALMONELLA TYPHIMURIUM, Strain/Indicator: TA98, Metabolic Activation: RAT, LIVER, S-9, AROCLOR 1254 (10%), Method: PREINCUBATION): inactive; negative; mutagenic call (Test System: AMES SALMONELLA TYPHIMURIUM, Strain/Indicator: TA100, Metabolic Activation: HAMSTER, LIVER, S-9, AROCLOR 1254 (10%), Method: PREINCUBATION): inactive; negative; mutagenic call (Test System: AMES SALMONELLA TYPHIMURIUM, Strain/Indicator: TA100, Metabolic Activation: RAT, LIVER, S-9, AROCLOR 1254 (10%), Method: PREINCUBATION): inactive; negative; mutagenic call (Test System: AMES SALMONELLA TYPHIMURIUM, Strain/Indicator: TA1535, Metabolic Activation: HAMSTER, LIVER, S-9, AROCLOR 1254 (10%), Method: PREINCUBATION): inactive; negative; mutagenic call (Test System: AMES SALMONELLA TYPHIMURIUM, Strain/Indicator: TA1535, Metabolic Activation: RAT, LIVER, S-9, AROCLOR 1254 (10%), Method: PREINCUBATION): inactive; negative; mutagenic call (Test System: AMES SALMONELLA TYPHIMURIUM, Strain/Indicator: TA1537, Metabolic Activation: HAMSTER, LIVER, S-9, AROCLOR 1254 (10%), Method: PREINCUBATION): inactive; negative; mutagenic call (Test System: AMES SALMONELLA TYPHIMURIUM, Strain/Indicator: TA1537, Metabolic Activation: RAT, LIVER, S-9, AROCLOR 1254 (10%), Method: PREINCUBATION): inactive; negative; mutagenic call (Test System: AMES SALMONELLA TYPHIMURIUM, Strain/Indicator: TA1538, Metabolic Activation: RAT, LIVER, S-9, AROCLOR 1254, Method: STANDARD PLATE): active; positive
2 | C=CC(C)(O)CCC=C(C)C (stereo not given) | – | – | – | – | inactive; negative | inactive; negative | inactive; negative | – | – | – | – | – | – | – | – | – | – | mutagenic call (Test System: AMES SALMONELLA TYPHIMURIUM, Strain/Indicator: TA97, Metabolic Activation: RAT, LIVER, S-9, AROCLOR 1254, Method: PREINCUBATION): inactive; negative; mutagenic call (Test System: E. coli, Strain/Indicator: WP2 IC185 trpE65, Metabolic Activation: None, Method: Plate incorporation (Test material solvent: ethanol)): inactive; negative; mutagenic call (Test System: E. coli, Strain/Indicator: WP2 IC202 trpE65 oxyR/pKM101, Metabolic Activation: None, Method: Plate incorporation (Test material solvent: ethanol)): inactive; negative
3 | NS(=O)(=O)c1cc2c(cc1Cl)NC=NS2(=O)=O | inactive; negative | inactive; negative | inactive; negative | inactive; negative | inactive; negative | – | – | inactive; negative | inactive; negative | inactive; negative | inactive; negative | inactive; negative | inactive; negative | inactive; negative | inactive; negative | inactive; negative | inactive; negative | –
4 | Oc1ccc2cccc(O)c2c1 | – | – | – | – | – | – | – | – | – | – | – | – | – | – | – | – | – | mutagenic call (Test System: AMES SALMONELLA TYPHIMURIUM, Strain/Indicator: TA2637, Metabolic Activation: NONE, Method: PREINCUBATION): active; positive
5 | CCC(=O)O | inactive; negative | inactive; negative | inactive; negative | inactive; negative | inactive; negative | inactive; negative | inactive; negative | inactive; negative | inactive; negative | inactive; negative | inactive; negative | inactive; negative | inactive; negative | inactive; negative | inactive; negative | inactive; negative | inactive; negative | mutagenic call (Test System: AMES SALMONELLA TYPHIMURIUM, Strain/Indicator: TA97A, Metabolic Activation: NONE, Method: PREINCUBATION): inactive; negative; mutagenic call (Test System: AMES SALMONELLA TYPHIMURIUM, Strain/Indicator: TA97A, Metabolic Activation: RAT, LIVER, S-9, AROCLOR 1254, Method: PREINCUBATION): inactive; negative; mutagenic call (Test System: AMES SALMONELLA TYPHIMURIUM, Strain/Indicator: TA98, Metabolic Activation: RAT LIVER S-9, PHENOBARBITAL AND BETA-NAPHTHOFLAVONE, Method: PREINCUBATION): inactive; negative; mutagenic call (Test System: AMES SALMONELLA TYPHIMURIUM, Strain/Indicator: TA100, Metabolic Activation: RAT LIVER S-9, PHENOBARBITAL AND BETA-NAPHTHOFLAVONE, Method: PREINCUBATION): inactive; negative; mutagenic call (Test System: AMES SALMONELLA TYPHIMURIUM, Strain/Indicator: TA1535, Metabolic Activation: RAT LIVER S-9, PHENOBARBITAL AND BETA-NAPHTHOFLAVONE, Method: PREINCUBATION): inactive; negative; mutagenic call (Test System: AMES SALMONELLA TYPHIMURIUM, Strain/Indicator: TA1537, Metabolic Activation: RAT LIVER S-9, PHENOBARBITAL AND BETA-NAPHTHOFLAVONE, Method: PREINCUBATION): inactive; negative; mutagenic call (Test System: E.COLI, Strain/Indicator: WP2UVRA/PKM101, Metabolic Activation: NONE, Method: PREINCUBATION): inactive; negative; mutagenic call (Test System: E.COLI, Strain/Indicator: WP2UVRA/PKM101, Metabolic Activation: RAT LIVER S-9, PHENOBARBITAL AND BETA-NAPHTHOFLAVONE, Method: PREINCUBATION): inactive; negative
